Results from ChEMBL document CHEMBL6114985, “From Dyrk1A inhibitors to a novel class of antiviral agents: Targeting Enterovirus EV-A71 with 2-aryl-substituted thiophene scaffolds” (Eur J Med Chem, 2025).
pEC50, pIC50: −log10 of the molar value. The source made the active and inactive calls. No cut-off for these calls is given here.

Assays:
[1] = Cytotoxicity against human RD cells assessed as reduction in cell growth incubated for 3 days by MTT assay; format: toxicity, cell-based; conditions: time 3 day
[2] = tested on: Enterovirus A71; assay: Antiviral activity against Enterovirus A71 TW/2231/98 infected in human RD cells assessed as effect on viral titer at 10 uM preincubated with cells at 1 hr followed by compound addition and measured at 0 to 3 hrs post infection by time of addition based plaque assay; format: functional, organism-based
[3] = Metabolic stability in human liver microsome assessed as half life incubated for 120 mins by HPLC-MS/MS; format: ADME; conditions: liver microsomes
[4] = Stability in mouse plasma assessed as half life by HPLC-MS/MS; format: ADME, cell-free
[5] = Cytotoxicity against human A549 cells infected with Human adenovirus; format: toxicity, cell-based
[6] = tested on: Herpes Simplexvirus; assay: Antiviral activity against Herpes Simplexvirus infected in human A549 cells assessed as inhibition of viral replication at 0.95 uM relative to control; format: functional
[7] = Metabolic stability in mouse liver microsome assessed as intrinsic clearance incubated for 120 mins by HPLC-MS/MS; format: ADME; conditions: liver microsomes, read-out: CLH
[8] = tested on: Enterovirus A71; assay: Antiviral activity against Enterovirus A71 TW/2231/98 infected in human RD cells assessed as effect on viral RNA level at 10 uM preincubated with cells at 1 hr followed by compound addition and measured at 0 to 3 hrs post infection by time of addition based RT-qPCR analysis; format: functional, organism-based
[9] = tested on: Enterovirus A71; assay: Antiviral activity against Enterovirus A71 2231 assessed as reduction in viral replication; format: functional, organism-based; conditions: Enterovirus A
[10] = Lipophilicity, logD of compound by UPLC-MS analysis; format: physicochemical; conditions: octanol/water
[11] = tested on: Enterovirus A71; assay: Antiviral activity against Enterovirus A71 TW/2231/98 infected in human RD cells assessed as inhibition of viral plaque formation at 1.25 uM incubated for 3 to 5 days by crystal violet staining based plaque reduction assay relative to control; format: functional; conditions: Enterovirus A, TW/2231/98, RD, time 3-5 day
[12] = tested on: Human rhinovirus sp.; assay: Antiviral activity against Human rhinovirus 71803 assessed as reduction in viral replication; format: functional, organism-based
[13] = tested on: Herpes Simplexvirus; assay: microbe, parasite or virus in culture; conditions: A549
[14] = tested on: Enterovirus A71; assay: Antiviral activity against Enterovirus A71 TW/2231/98 infected in human RD cells assessed as reduction in viral protein level at 10 uM preincubated with cells at 1 hr followed by compound addition and measured after 9 hrs post infection by time of addition based immunoblotting analysis; format: functional, organism-based
[15] = tested on: Enterovirus A71; assay: Antiviral activity against Enterovirus A71 TW/2231/98 infected in human RD cells assessed as inhibition of viral plaque formation at 2.5 uM incubated for 3 to 5 days by crystal violet staining based plaque reduction assay relative to control; format: functional; conditions: Enterovirus A, TW/2231/98, RD, time 3-5 day
[16] = tested on: Enterovirus A71; assay: Antiviral activity against Enterovirus A71 4798 assessed as reduction in viral replication; format: functional, organism-based; conditions: Enterovirus A
[17] = Stability in human plasma assessed as half life by HPLC-MS/MS; format: ADME, cell-free
[18] = tested on: Enterovirus A71; assay: Antiviral activity against Enterovirus A71 TW/2231/98 infected in human RD cells assessed as reduction in viral titer at 10 uM preincubated with cells at 1 hr followed by compound addition and measured after 9 hrs post infection by time of addition based plaque assay; format: functional, organism-based
[19] = tested on: enterovirus D68; assay: Antiviral activity against Enterovirus D68 2795 assessed as reduction in viral replication; format: functional, organism-based; conditions: Enterovirus D
[20] = tested on: Enterovirus A71; assay: Antiviral activity against Enterovirus A71 TW/2231/98 infected in human RD cells assessed as reduction in viral RNA level at 10 uM preincubated with cells at 1 hr followed by compound addition and measured after 9 hrs post infection by time of addition based RT-qPCR analysis; format: functional, organism-based
[21] = molecular target: T1, Dual specificity tyrosine-phosphorylation-regulated kinase 1A (Homo sapiens, UniProt Q13627); assay: Inhibition of DYRK1A (unknown origin) at 25 uM incubated for 1 hr relative to control
[22] = Metabolic stability in human liver microsome assessed as intrinsic clearance incubated for 120 mins by HPLC-MS/MS; format: ADME; conditions: liver microsomes, read-out: CLH
[23] = Cytotoxicity against human A549 cells infected with Herpes Simplexvirus; format: toxicity, cell-based; conditions: A549 cells infected with herpes simplex virus
[24] = Selectivity index, ratio of CC50 for human RD cells to EC50 for antiviral activity against enterovirus A71 TW/2231/98 infected in human RD cells; format: toxicity, cell-based; conditions: read-out: Ratio CC50/EC50
[25] = tested on: Enterovirus A71; assay: Antiviral activity against Enterovirus A71 TW/2231/98 infected in human RD cells assessed as inhibition of viral plaque formation at 5 uM incubated for 3 to 5 days by crystal violet staining based plaque reduction assay relative to control; format: functional; conditions: Enterovirus A, TW/2231/98, RD, time 3-5 day
[26] = tested on: Enterovirus A71; assay: Antiviral activity against Enterovirus A71 TW/2231/98 infected in human RD cells assessed as effect on viral protein level at 10 uM preincubated with cells at 1 hr followed by compound addition and measured at 0 to 3 hrs post infection by time of addition based immunoblotting analysis; format: functional, organism-based
[27] = tested on: Enterovirus A71; assay: Antiviral activity against Enterovirus A71 TW/2231/98 infected in human RD cells assessed as effect on viral replication incubated for 3 to 5 days by crystal violet staining based plaque reduction assay; format: functional, organism-based; conditions: time 3-5 day
[28] = in vitro; conditions: human, A549 cells
[29] = tested on: Human adenovirus sp.; assay: microbe, parasite or virus in culture; conditions: A549
[30] = tested on: Influenza A virus; assay: Antiviral activity against influenza A virus assessed as reduction in viral replication; format: functional, organism-based
[31] = Metabolic stability in mouse liver microsome assessed as half life incubated for 120 mins by HPLC-MS/MS; format: ADME; conditions: liver microsomes
[32] = tested on: enterovirus D68; assay: Antiviral activity against Enterovirus D68 KY 18953 assessed as reduction in viral replication; format: functional, organism-based; conditions: Enterovirus D
[33] = tested on: Enterovirus A71; assay: Antiviral activity against Enterovirus A71 TW/2231/98 infected in human RD cells assessed as reduction in cytopathic effect incubated for 3 days; format: functional, organism-based; conditions: Enterovirus A, TW/2231/98, RD, 72 h
[34] = tested on: Coxsackievirus; assay: Antiviral activity against Coxsackievirus assessed as reduction in viral replication; format: functional, organism-based
[35] = molecular target: T1, Dual specificity tyrosine-phosphorylation-regulated kinase 1A; assay: Inhibition of DYRK1A (unknown origin)

For `COc1ccc(F)c(C(=O)Nc2cncc(-c3cc(-c4cccnc4)cs3)c2)c1`, the CC50 at 72 h [1] was 12.8 µM, the Activity [2] was “inactive” and the half-life [3] was 55 min. The half-life [4] was > 240 min, the CC50 [5] was > 10 µM and the inhibition at 0.95 µM [6] was 50%. The microsomal CLint [7] was 104 µL/min/mg, the Activity [8] was “inactive” and the pEC50 [9] was 5.36. It also gave a logD [10] of 3.44, an inhibition at 1.25 µM [11] of 20% and a pEC50 [12] of 5.38. For the same compound, the pEC50 [13] was 6.00, the Activity [14] was “Active” and the inhibition at 2.5 µM [15] was ~60%. The pEC50 [16] was 5.38, the half-life [17] was > 240 min and the Activity [18] was “Active”. The pEC50 [19] was 5.33, the Activity [20] was “Active” and the inhibition [21] was 95%. The microsomal CLint [22] was 27 µL/min/mg, the CC50 [23] was > 15 µM and the selectivity ratio [24] was 2.9. For the same compound, the inhibition at 5 µM [25] was 80%, the Activity [26] was “inactive” and the Activity [27] was “Active”. For the same compound, the selectivity ratio [28] was > 15, the pEC50 [29] was < 5.00 and the pEC50 [30] was < 5.00. The half-life [31] was 14 min, the pEC50 [32] was 5.47 and the pEC50 [33] was 5.36. It also gave a pEC50 [34] of 5.55 and a pIC50 [35] of 7.42.
